{"source": "patent US5760092A", "about": "“Allocolchinones and uses thereof” (Brandeis University, priority 1996, dated 1998)", "key": {"tubulin": {"tested_on": "tubulin", "format": "biochemical, calf"}, "[1]": {"tested_on": "SK-OV-3 ovarian cancer cells", "settings": "log10 conc -6.0; 1 µM"}}, "note": "pIC50: −log10 of the molar value."}
{"compound": "COc1cc2c(c(OC)c1OC)-c1ccc(C(C)=O)cc1C(NC(C)=O)CC2", "note": "(centres unmarked)", "values": [{"measurement": "activity relative to colchicine (inhibition of microtubule assembly)", "setting": "tubulin; drug to tubulin molar concentration ratio of about 0.030", "value": "about 20%"}, {"measurement": "inhibition of microtubule formation compared with colchicine", "setting": "tubulin; in vitro", "value": "more active than colchicine"}, {"measurement": "pIC50", "setting": "tubulin; in vitro, read-out: LC50 (inhibition of microtubule assembly in vitro)", "value": 6.52}, {"measurement": "plateau turbidity", "setting": "tubulin; increasing amounts of drug, tubulin 2.1×10^-5 M", "value": "decrease in plateau turbidity"}, {"measurement": "Percent Growth", "setting": "[1]", "value": 10, "unit": "%"}]}
